According to patent EP4631959A2, “NOVEL MINIGASTRIN-DERIVED CHOLECYSTOKININ 2 RECEPTOR BINDING MOLECULES FOR IMAGING AND TARGETED RADIOTHERAPY” (priority 2022, dated 2024):
Starred links: 1 amine or outer side, 2 acyl side, 3 side chain; linkers in the order of their positions; H or OH if unused. Non-standard residues stand in square brackets, D forms with d. Residues, ends and D or L forms follow the SMILES beside them. *: point of attachment. DOTA = O=C(O)CN1CCN(CC(=O)O)CCN(CC(=O)*)CCN(CC(=O)O)CC1; d(γGlu) = O=C(O)[C@@H](CCC(=O)[*:2])N[*:1]; Bip = N[C@@H](Cc1ccc(-c2ccccc2)cc1)C(=O)O; 1Nal = N[C@@H](Cc1cccc2ccccc12)C(=O)O; 2Nal = N[C@@H](Cc1ccc2ccccc2c1)C(=O)O; PEG5 = NCCOCCOCCOCCOCCOCCC(=O)O; NMeNle = CCCC[C@H](NC)C(=O)O; Nle = CCCC[C@H](N)C(=O)O

target: T1, CCK-2R (Rattus norvegicus, UniProt P30553); assay: Determination of IC50: CCK-2R affinity on AR4-2J cells, competition with [^177Lu]Lu-DOTA-PP-F11N; assay type: binding; settings: AR4-2J cells; references ^natLu-labeled, other peptides without chelator; read-out: IC50 [nM] (n = 3)
T1 construct: The CCK-2R expressing rat pancreatic tumor cells AR4-2J; host or cells: AR4-2J rat pancreatic tumor cells
T1 sequence (P30553 1-452): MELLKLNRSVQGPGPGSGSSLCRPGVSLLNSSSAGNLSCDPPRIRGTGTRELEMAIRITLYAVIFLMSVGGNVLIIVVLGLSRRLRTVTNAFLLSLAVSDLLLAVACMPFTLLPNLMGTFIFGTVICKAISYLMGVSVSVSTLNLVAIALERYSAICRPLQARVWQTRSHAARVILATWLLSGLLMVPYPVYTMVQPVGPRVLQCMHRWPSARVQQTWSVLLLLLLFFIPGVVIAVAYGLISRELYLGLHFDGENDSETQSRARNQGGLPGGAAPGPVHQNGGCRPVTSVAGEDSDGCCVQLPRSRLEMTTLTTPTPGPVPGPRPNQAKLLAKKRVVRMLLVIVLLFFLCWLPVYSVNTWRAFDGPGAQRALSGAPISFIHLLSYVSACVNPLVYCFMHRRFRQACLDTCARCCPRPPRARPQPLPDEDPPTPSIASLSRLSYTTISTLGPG
Procedure: AR4-2J cells were harvested 24 ± 2 h before the experiment and seeded in 24-well plates (2.0 × 10^5 cells in 1 mL/well). After removal of the nutrient medium (RPMI 1640, 5 mM L-Gln, 5 mL non-essential amino acids (100×), 10% FCS), the cells were washed once with 500 µL PBS. Thereafter, 200 µL nutrient medium (5% BSA, v/v) were added. Next, 25 µL per well of solutions containing either nutrient medium (5% BSA, v/v) as control or the respective compound in increasing concentration (10^-10 - 10^-4 M), were added with subsequent addition of 25 µL [^177Lu]Lu-DOTA-PP-F11N (0.3 pmol/well).
All experiments were performed in triplicate for each concentration. After 3 h incubation at 37 °C, the experiment was terminated by removal of the medium and consecutive rinsing with 300 µL PBS. The media of both steps were combined in one fraction and represent the amount of free radiolabeled reference. Afterwards, the cells were lysed with 300 µL of 1 M NaOH for at least 15 min and united with the 300 µL NaOH of the following washing step. Quantification of bound and free radiolabeled reference was accomplished in a γ-counter. IC50 determination for each conjugate was repeated twice.

Row | SMILES | IC50
1 | CCCC[C@H](NC(=O)[C@H](Cc1c[nH]c2ccccc12)NC(=O)CNC(=O)[C@H](Cc1ccc(O)cc1)NC(=O)[C@H](C)NC(=O)CC[C@@H](N)C(=O)O)C(=O)N[C@@H](CC(=O)O)C(=O)N[C@@H](Cc1ccc(-c2ccccc2)cc1)C(N)=O [CCK-38, H-γ-glu-Ala-Tyr-Gly-Trp-Nle-Asp-Bip-NH2] ({d(γGlu)}-AYGW[Nle]D[Bip]-NH2) | > 1000 nM
2 | CSCC[C@H](NC(=O)[C@H](Cc1c[nH]c2ccccc12)NC(=O)CNC(=O)[C@H](Cc1ccc(O)cc1)NC(=O)[C@H](C)NC(=O)[C@@H](CCC(=O)O)NC(=O)[C@@H](CCC(=O)O)NC(=O)[C@@H](CCC(=O)O)NC(=O)[C@@H](CCC(=O)O)NC(=O)[C@@H](CCC(=O)O)NC(=O)[C@@H](CCC(=O)O)NC(=O)CN1CCN(CC(=O)O)CCN(CC(=O)O)CCN(CC(=O)O)CC1)C(=O)N[C@@H](CC(=O)O)C(=O)N[C@@H](Cc1ccccc1)C(N)=O [CP04, DOTA-glu^1-glu^2-glu^3-glu^4-glu^5-glu^6-Ala^7-Tyr^8-Gly^9-Trp^10-Met^11-Asp^12-Phe^13-NH2, reference compound] | 11.2 ± 0.2 nM
3 | CCCC[C@@H](C(=O)N[C@@H](CC(=O)O)C(=O)N[C@@H](Cc1cccc2ccccc12)C(N)=O)N(C)C(=O)[C@H](Cc1c[nH]c2ccccc12)NC(=O)CNC(=O)[C@H](Cc1ccc(O)cc1)NC(=O)[C@H](C)NC(=O)CC[C@@H](NC(=O)CN1CCN(CC(=O)O)CCN(CC(=O)O)CCN(CC(=O)O)CC1)C(=O)O [DOTA-γ-MGS5, DOTA-γ-glu^6-Ala^7-Tyr^8-Gly^9-Trp^10-(N-Me)Nle^11-Asp^12-1-Nal^13-NH2, reference compound] ({DOTA-d(γGlu)}-AYGW[NMeNle]D[1Nal]-NH2) | 4.9 ± 0.8 nM
4 | CCCC[C@@H](C(=O)N[C@@H](CC(=O)O)C(=O)N[C@@H](Cc1ccc2ccccc2c1)C(N)=O)N(C)C(=O)[C@@H](N)Cc1c[nH]c2ccccc12 [H-Trp-(N-Me)Nle-Asp-2-Nal-NH2] (H-W[NMeNle]D[2Nal]-NH2) | 102 ± 9 nM
5 | CCCC[C@@H](C(=O)N[C@@H](CC(=O)O)C(=O)N[C@@H](Cc1ccccc1)C(N)=O)N(C)C(=O)[C@@H](N)Cc1c[nH]c2ccccc12 [H-Trp-(N-Me)Nle-Asp-Phe-NH2] (H-W[NMeNle]DF-NH2) | 4.5 ± 0.6 nM
6 | CCCC[C@@H](C(=O)N[C@@H](CC(=O)O)C(=O)N[C@@H](Cc1c[nH]c2ccccc12)C(N)=O)N(C)C(=O)[C@@H](N)Cc1c[nH]c2ccccc12 [H-Trp-(N-Me)Nle-Asp-Trp-NH2] (H-W[NMeNle]DW-NH2) | 18.8 ± 0.5 nM
7 | CCCC[C@@H](C(=O)N[C@@H](CC(=O)O)C(=O)N[C@@H](Cc1ccc(O)cc1)C(N)=O)N(C)C(=O)[C@@H](N)Cc1c[nH]c2ccccc12 [H-Trp-(N-Me)Nle-Asp-Tyr-NH2] (H-W[NMeNle]DY-NH2) | 5.7 ± 0.5 nM
8 | CCCC[C@H](NC(=O)[C@@H](N)Cc1c[nH]c2ccccc12)C(=O)N[C@@H](CC(=O)O)C(=O)N[C@@H](Cc1cccc2ccccc12)C(N)=O [H-Trp-Nle-Asp-1-Nal-NH2] (H-W[Nle]D[1Nal]-NH2) | 297 ± 16 nM
9 | CCCC[C@H](NC(=O)[C@@H](N)Cc1c[nH]c2ccccc12)C(=O)N[C@@H](CC(=O)O)C(=O)N[C@@H](Cc1ccccc1)C(N)=O [H-Trp-Nle-Asp-Phe-NH2] (H-W[Nle]DF-NH2) | 466 ± 88 nM

same assay, conditions: text values without printed unit; ^natLu-labeled; read-out: IC50

Row | SMILES | IC50
10 | CCCC[C@@H](C(=O)N[C@@H](CC(=O)O)C(=O)N[C@@H](Cc1cccc2ccccc12)C(N)=O)N(C)C(=O)[C@H](Cc1c[nH]c2ccccc12)NC(=O)CCOCCOCCOCCOCCOCCNC(=O)CN1CCN(CC(=O)O)CCN(CC(=O)O)CCN(CC(=O)O)CC1 [DOTA-CCK-50, DOTA-(PEG)4-Trp-(N-Me)Nle-Asp-1-Nal-NH2] ({DOTA-PEG5}-W[NMeNle]D[1Nal]-NH2) | 8.84 ± 1.25 nM
